Data: patent publication US7208154B2, “Methods and compositions for the treatment of MHC-associated conditions” (Regents of the University of Michigan, priority 2002, dated 2007)
Where two headings read alike, the source gives them in different places. No end group written: not given here.

Columns and labels:
[1] = system: human fibroblastoid line M1 cells; conditions: for Block of 2CA-triggered DNA repair activity: 10 μM 2CA, co-incubation with various concentrations; for Block of the inhibitory effect of shared epitope peptide (Bead*0401) on 2CA-induced DNA repair: prior incubation of M1 cells: L-NMA 5 mM overnight, KT5823 1 μM 10 min; for Inhibition of cAMP-dependent (2CA-induced) DNA repair induction / genoprotective pathway by pentapeptide: M1 cells preincubated overnight with 50 μg/ml synthetic pentapeptide
Excerpt: To further determine the signaling pathways involved in DNA repair induction, the inventors used the Trevigen CometAssay™ kit (Cat. No. 4250-50-K). The CometAssay is a single-cell gel electrophoresis method that can measure a variety of types of DNA damage, and repair of damage, in individual cells. The assay is based on the alkaline lysis of labile DNA at sites of damage. The unwound, relaxed DNA is able to migrate out of the cell during electrophoresis and can be visualized by SYBR Green staining.
To quantify DNA damage, cells were collected and three parallel samples were processed (a negative control, a DNA damage control (H2O2) and a sample subjected to H2O2 following exposure to various modulators of the cAMP signaling pathway). Cells are then washed in PBS. The washed cells are combined with molten low-melting agarose (Trevigen Cat. No. 4250-50-02) and transferred to a CometSlide™ (Trevigen Cat. No. 4250-100-03). The slides are immersed in lysis buffer for 30 min, on ice, in the dark. The slides are then treated with alkali buffer for 20 to 60 min at room temperature in the dark. The slides are then electrophoresed in buffer for 10 min at 20 volts, then fixed in methanol and ethanol. The slides are then stained with SYBR green (Trevigen Cat. No. 4250-50-05) solution and fluorescently imaged with a Diagnostic Instruments digitized camera, mounted on a Nikon Eclipse E400 microscope. Scion Image software is used to quantitate the comet tail intensity. Each data point is derived from tail fluorescent intensity determination in 50–100 individual cells. Data is presented as % DNA repair (the percent decrement in tail fluorescence intensity in agonist or antagonist-treated cells, relative to the intensity recorded in cells treated with H2O2 only)±SEM. (R.U.s)
To directly examine that possibility, cells were incubated overnight with synthetic peptides corresponding to the region contained within amino acids 65–79 and their ability to mount DNA repair activity in response to cAMP-elevating agents was determined. M1 cells were preincubated overnight with 50 μg/ml of synthetic peptides corresponding to the region surrounding the third allelic hypervariable region (aa 65–79) of each of the following DRβ chains: *0401 (65–79*0401) [SEQ ID NO: 5], *0402 (65–79*0402) [SEQ ID NO: 7], *0403 (65–79*0403) [SEQ ID NO: 9] or *0404(65–79*0404) [SEQ ID NO: 10]. At the end of the preincubation, cells were collected, washed and 2CA-induced DNA repair was determined as above. Table 3 (above) lists the different third allelic hypervariable region peptides used in the entire study disclosed here.
A modified method as described previously by Auger et al. [Nature Med 2:306–310 1996] was used. Briefly, cyanogen bromide activated Speharose 4B (1.5 ml) was washed with 1 mM HCl and incubated with peptides in 0.1 M NaHCO3 and 0.5 M NaCl (pH 8) buffer overnight at 4° C. For each peptide, 5 mg was used per milliliter of Sepharose. Free Sepharose groups were blocked with 0.2 M glycine (pH 8) for 2 hours at room temperature. Columns were washed at 4° C. with the following buffers: 0.1 M NaHCO3, 0.5 M NaCl (pH 8) buffer, then 0.5 M CH3COONa (pH 4) buffer and finally PBS at pH 7.5. M1 cells were plated at a density of 0.5×10^6 cells per well (6 well plate) in 10% FBS DMEM medium until 70–80% confluence. Prior to incubation with peptides, cultures were changed to serum-free DMEM medium, then evenly overlaid with 50 μg bead conjugated peptides, and incubated for the indicated period. Soluble peptides were added overnight to M1 cells at a concentration of 50 μg/ml.

[2] = system: M1 cells; assay: Intracellular cAMP level (enzyme immunoassay) in M1 cells after 2CA; assay type: cell-based, human; conditions: M1 cells preincubated 10 min with peptide-conjugated beads, 10 or 100 μM 2CA
Experimental: cAMP was determined by using an Amersham Pharmacia Biotech cAMP enzymeimmunoassay (EIA) system (code RPN 225). The reagents are prepared as described by the manufacturer (lysis reagents 1 and 2, the standard for the non-acetylation assay, the anti-cAMP antiserum, the cAMP peroxidase conjugate and wash buffer). […] Samples are added, followed by the antiserum solution. Following the recommended incubation, cAMP-peroxidase conjugate is added and incubated according to the recommended protocol. Each well is then aspirated and washed, and enzyme substrate is added and incubated. The results can then be read at 630 nm or at 450 nm (depending on the time of incubation and method of stopping the reaction), again according to the manufacturer's protocol.
A.) cAMP levels were assayed in M1 cells that were preincubated for 10 minutes with peptide-conjugated beads [Bead*0401, SEQ ID NO:6; Bead*0402, SEQ ID NO: 8], and intracellular cAMP level changes in response to stimulation with either 10 μM (FIG. 10A, top) or 100 μM (FIG. 10A, bottom) of 2CA were determined at different time points. cAMP levels were measured using a commercial enzyme immunoassay kit from Pharmacia. Results are expressed as fold increase of cAMP above baseline levels.

[3] = system: Protein kinase A (PKA); assay: PKA activity in M1 cells after 2CA; assay type: cell-based, human; conditions: M1 cells preincubated with peptide-conjugated beads, 10 μM 2CA
Experimental: Protein kinase A (PKA) was measured using the Life Technologies™ Protein Kinase A (cAMP-dependent Protein Kinase) Assay System (Cat. No. 13128-012). The basis of the assay system is the use of a heptapeptide substrate and a 17-amino acid inhibitor peptide (which is valuable for proving PKA-specific protein kinase activity). Four assay conditions per experimental condition are recommended by the manufacturer (+/− inhibitor and +/− cAMP) to determine total PKA-specific kinase activity and proportion of PKA activated in the cells or tissue of interest. Briefly, the four parallel assay conditions are set up for each of the four assay conditions for a given cell or tissue sample, according to the manufacturer's instructions. Substrate and [γ-^32P]ATP (3000–6000 Ci/mmol stock solution) are then added to each tube, and incubated according to the manufacturer's instructions. Following the incubation period, a sample from each tube is spotted onto a […] disc, which is the acid washed prior to scintillation counting (all according to the manufacturer's instructions). Activity can then be determined as described by the manufacturer of the kit.
B.) PKA activity was determined in M1 cells preincubated with peptide-conjugated beads [Bead*0401, SEQ ID NO: 6; Bead*0402, SEQ ID NO: 8], at different time points following treatment with 10 μM 2CA as above.

[4] = system: hybrid neuroblastoma-glioma NG108–15 cell line; assay: Neuroprotection in acutely stressed NG108–15 cells; assay type: cell-based; conditions: near-confluent NG108–15, 50 μg/ml peptide, 24 hr
Experimental: In order to assess whether shared epitope-containing peptides exert a neuroprotective effect, preliminary experiments were carried out with the hybrid neuroblastoma-glioma NG108–15 cell line. Cells (10^5/ml) were first cultured overnight at near-confluence in 24-well plates in DMEM medium supplemented with 1% fetal calf serum (FCS). Under these conditions, NG108–15 cells show a flat, multipolar morphology and neurite formation. After 20 hours, cells were stressed acutely in serum-free medium (by aspiration of the medium and replacement with serum-free DMEM) with 50 μg/ml of peptides and evaluated morphologically at different time points thereafter. […] Morphological differences between cultures treated with different peptides could be observed as early as 5–6 hrs after treatment. The photographs shown were taken at the 24 hr time point. In another experiment (FIG. 12C), NG108–15 cells were cultured at low cell density (2×10^4/ml) in 1% FCS-containing DMEM medium overnight. The next day cells were subjected to acute stress in serum-free and low glucose (RPMI1640) medium (after aspiration of the 1% FCS DMEM) in the presence of 50 μg/ml of either 65–78*0401 [SEQ ID NO: 6] or 65–78*0402 [SEQ ID NO: 8] peptides. After 72 hours, cells were fixed with 1% formaldehyde and inspected microscopically. Mean±SEM was determined by averaging cell counts in eight randomly-selected microscopic fields in 200× magnification. Neurite-positive cells were defined as cells with one or more projections extending at least twice as long as the cell diameter. […] (FIG. 12C). The calculated number of neurite-positive cells was over 6-fold higher in shared epitope-containing peptide-cultured cells. When cultured in the presence of lysophosphatidic acid or high concentrations of serum, neuronal cells undergo neurite retraction (130). […] Thus, it is concluded that shared epitope-containing peptides may exert neuroprotective effects.

## CC(=O)N[C@H](C(=O)O)C(C)(C)SN=O (racemic) [SNAP, S-Nitroso-N-Acetylpenicillamine, reference compound]
[1]
  Block of 2CA-triggered DNA repair activity: completely blocked

## Nc1nc2c(nc(Br)n2[C@@H]2O[C@@H]3COP(=O)(O)O[C@H]3[C@H]2O)c(=O)[nH]1 [8-Br-cGMP, 8-bromo-cyclic GMP, reference compound]
[1]
  Block of 2CA-triggered DNA repair activity: completely blocked

## O=S(=O)(NCCNC/C=C/c1ccc(Br)cc1)c1cccc2cnccc12 [H-89, reference compound]
[1]
  Block of 2CA-triggered DNA repair activity: could also be blocked

## COC(=O)[C@@]1(OC)C[C@H]2O[C@]1(C)n1c3ccccc3c3c4c(c5c6ccccc6n2c5c31)C(=O)N(C)C4 [KT5823, reference compound]
[1]
  Block of the inhibitory effect of shared epitope peptide (Bead*0401) on 2CA-induced DNA repair: could be blocked

## CNC(=N)NCCC[C@H](N)C(=O)O [L-NMA, NG-methyl-L-arginine, reference compound]
[1]
  Block of the inhibitory effect of shared epitope peptide (Bead*0401) on 2CA-induced DNA repair: could be blocked

## CCCCC[C@H](O)/C=C/[C@H]1[C@H](O)CC(=O)[C@@H]1CCCCCCC(=O)O [PGE1, prostaglandin E1, reference compound]
[1]; M1 cells stimulated 20 min with various concentrations before 100 μM H2O2
  DNA repair triggered: triggered in all cases DNA repair

## CCCn1c(=O)c2[nH]c(-c3ccc(OCC(=O)NCCN)cc3)nc2n(CCC)c1=O [XAC, reference compound]
[1]
  Block of 2CA-triggered DNA repair activity: could be blocked

## CCCn1c(=O)[nH]c(=O)c2[nH]cnc21 [enprofylline, reference compound]
[1]
  Block of 2CA-triggered DNA repair activity: could be blocked

## Bead*0401: Sepharose beads chemically conjugated to 14-mer peptide, residues 65–78 of DRβ*0401 chain [SEQ ID NO: 6] (KDLLEQKRAAVDTY; also: conjugated to Sepharose beads)
[1]; M1 cells preincubated for various times with peptide-conjugated beads
  Block of cAMP-mediated (2CA-induced) DNA repair by Sepharose bead-conjugated peptide: blocked cAMP-mediated DNA repair
[2]
  cAMP level response to 2CA: failed to increase cAMP levels
[3]
  PKA activation following 2CA: failed to increase cAMP levels or activate PKA

## Bead*0402: Sepharose beads chemically conjugated to 14-mer peptide, residues 65–78 of DRβ*0402 chain [SEQ ID NO: 8] (KDILEDERAAVDTY; also: conjugated to Sepharose beads)
[2]
  cAMP level response to 2CA: mounted substantial response to the agonist
[3]
  PKA activation following 2CA: mounted substantial response to the agonist

## Gln Arg Arg Ala Ala (QRRAA)
[1]
  Inhibition of cAMP-dependent (2CA-induced) DNA repair induction / genoprotective pathway by pentapeptide: inhibited completely cAMP-dependent DNA repair induction
[1]; listed as #2
  Inhibition of cAMP-dependent (2CA-induced) DNA repair induction / genoprotective pathway by pentapeptide: efficiently inhibited the genoprotective pathway

## Gln Glu Cys Leu Ala (QECLA)
[1]
  Inhibition of cAMP-dependent (2CA-induced) DNA repair induction / genoprotective pathway by pentapeptide: failed to do so

## Gln Lys Arg Ala Ala (QKRAA)
[1]
  Inhibition of cAMP-dependent (2CA-induced) DNA repair induction / genoprotective pathway by pentapeptide: had a similar effect
[1]; listed as #1
  Inhibition of cAMP-dependent (2CA-induced) DNA repair induction / genoprotective pathway by pentapeptide: efficiently inhibited the genoprotective pathway

## Gln Lys Arg Leu Ala (QKRLA)
[1]
  Inhibition of cAMP-dependent (2CA-induced) DNA repair induction / genoprotective pathway by pentapeptide: equally effective in suppressing cAMP signaling
[1]; listed as #3
  Inhibition of cAMP-dependent (2CA-induced) DNA repair induction / genoprotective pathway by pentapeptide: efficiently inhibited the genoprotective pathway

## Gln Lys Cys Leu Ala (QKCLA)
[1]
  Inhibition of cAMP-dependent (2CA-induced) DNA repair induction / genoprotective pathway by pentapeptide: equally effective in suppressing cAMP signaling
[1]; listed as #5
  Inhibition of cAMP-dependent (2CA-induced) DNA repair induction / genoprotective pathway by pentapeptide: efficiently inhibited the genoprotective pathway

## HBc*0401: recombinant chimeric hepatitis B core protein with insertion of amino acids 65–79 of the β chain encoded by HLA-DRB*0401
[1]; M1 cells preincubated overnight with 50 μg/ml recombinant HBc particles
  Suppression of cAMP signaling (2CA-induced DNA repair): effectively suppressed cAMP signaling

## KDILEDERAAVDTY [65–78*0402, control peptide, amino acids 65–78 of the β chain encoded by the HLA-DRB*0402 allele]
[4]
  Cell morphology after acute serum-free stress: adjacent cells showed a rounding effect and collapsed into aggregates
